The record followed here is ChEMBL document CHEMBL3400064, “Synthesis and biological evaluation of 2-arylbenzimidazoles targeting Leishmania donovani” (Bioorg Med Chem Lett, 2015).

In one experiment the test system is Leishmania donovani. As to the kind of experiment: Antileishmanial activity against axenic amastigote Leishmania donovani MHOM/SD/1962/1S-Cl2d assessed as inhibition of parasite growth after 24 hrs at 50 uM by alamarBlue assay. Format: functional.
By inhibition is commonly meant the change of the read-out against control, counted positive when it falls. Regarding `CC(=O)Nc1cccc(-c2nc3ccccc3[nH]2)c1`, the inhibition at 50 µM was 56%.

For the compound `Cn1cccc1C(=O)Nc1cccc(-c2nc3ccccc3[nH]2)c1`, the inhibition at 50 µM amounted to 33%.

For the compound `O=C(Nc1cccc(-c2nc3ccccc3[nH]2)c1)c1cscn1`, the inhibition at 50 µM worked out at 45%.

Turning to `COc1cccc(C(=O)Nc2cccc(-c3nc4ccccc4[nH]3)c2)c1`, the inhibition at 50 µM worked out at 49%.

For `CC(C)(C)C(=O)Nc1cccc(-c2nc3ccccc3[nH]2)c1`, the inhibition at 50 µM was determined as 54%.

For `O=C(Nc1cccc(-c2nc3cc(Cl)ccc3[nH]2)c1)c1cccs1`, the inhibition at 50 µM stood at 80%.

In the case of `Cc1c(NC(=O)c2cccs2)cccc1-c1nc2ccccc2[nH]1`, the inhibition at 50 µM was determined as 31%.

Regarding `COc1ccc(-c2nc3ccccc3[nH]2)cc1NC(=O)c1cccs1`, the inhibition at 50 µM worked out at 38%.

In the case of `O=S(=O)(Nc1cccc(-c2nc3ccccc3[nH]2)c1)c1ccccc1`, the inhibition at 50 µM was found to be 52%.

For `O=C(Nc1cccc(-c2nc3ccccc3o2)c1)c1cccs1`, the inhibition at 50 µM was found to be 34%.

On to `O=C(Nc1ccc(-c2nc3ccccc3[nH]2)cc1)c1cccs1`, for which the inhibition at 50 µM was 22%.

For the compound `O=C(Nc1cccc(-c2nc3ccccc3[nH]2)c1)c1ccsc1`, the inhibition at 50 µM stood at 83%.

As for `O=C(Cc1cccs1)Nc1cccc(-c2nc3ccccc3[nH]2)c1`, the inhibition at 50 µM came to 49%.

`O=C(Nc1cccc(-c2nc3ccccc3[nH]2)c1)c1ccco1`: the inhibition at 50 µM is 43%.

Turning to `O=C(Nc1cccc(-c2nc3ccccc3[nH]2)c1)c1ccoc1`, the inhibition at 50 µM was determined as 80%.

Regarding `O=C(Nc1cccc(-c2nc3ccccc3[nH]2)c1)c1ccccn1`, the inhibition at 50 µM stood at 57%.

Regarding `O=C(Nc1cccc(-c2nc3ccccc3[nH]2)c1)c1ccccc1`, the inhibition at 50 µM came out at 56%.

Consider `CCCCC(=O)Nc1cccc(-c2nc3ccccc3[nH]2)c1`, for which the inhibition at 50 µM was determined as 82%.

On to `O=C(Nc1cccc(-c2nc3ccccc3[nH]2)c1)C1CCCC1`, for which the inhibition at 50 µM turned out to be 87%.

For the compound `O=C(Nc1ccccc1)Nc1cccc(-c2nc3ccccc3[nH]2)c1`, the inhibition at 50 µM was determined as 84%.

As for `O=C(Nc1cccc(-c2nc3ccccc3[nH]2)c1)NC1CCCCC1`, the inhibition at 50 µM was found to be 94%.

In the case of `O=C(Nc1ccccc1)Nc1ccccc1-c1nc2ccccc2[nH]1`, the inhibition at 50 µM was found to be 67%.

`O=C(Nc1ccccc1)c1cccc(-c2nc3ccccc3[nH]2)c1`: the inhibition at 50 µM turned out to be 87%.

Consider `O=C(Nc1ccccc1-c1nc2ccccc2[nH]1)c1cccs1`, for which the inhibition at 50 µM turned out to be 51%.

Regarding `O=C(Cc1cccs1)Nc1cccc(-c2ncc[nH]2)c1`, the inhibition at 50 µM turned out to be 0%.

As for `O=C(O)c1cccc(C(=O)Nc2cccc(-c3nc4ccccc4[nH]3)c2)c1`, the inhibition at 50 µM was 0%.

For the next experiment, the system named is Leishmania donovani. As to the kind of experiment: Antileishmanial activity against axenic amastigote Leishmania donovani MHOM/SD/1962/1S-Cl2d assessed as inhibition of parasite growth after 24 hrs at 5 uM by alamarBlue assay. The format is functional. In general terms: The colour change of resazurin is a common sign of viable cells or microbes.
Regarding `CC(=O)Nc1cccc(-c2nc3ccccc3[nH]2)c1`, the inhibition at 5 µM came out at 20%.

`CC(C)(C)C(=O)Nc1cccc(-c2nc3ccccc3[nH]2)c1`: the inhibition at 5 µM stood at 27%.

As to `O=C(Nc1cccc(-c2nc3cc(Cl)ccc3[nH]2)c1)c1cccs1`, the inhibition at 5 µM came to 11%.

Consider `O=S(=O)(Nc1cccc(-c2nc3ccccc3[nH]2)c1)c1ccccc1`, for which the inhibition at 5 µM is 0%.

With `O=C(Nc1cccc(-c2nc3ccccc3[nH]2)c1)c1ccsc1`, the inhibition at 5 µM stood at 17%.

Take `O=C(Nc1cccc(-c2nc3ccccc3[nH]2)c1)c1ccoc1`: the inhibition at 5 µM is 19%.

In the case of `O=C(Nc1cccc(-c2nc3ccccc3[nH]2)c1)c1ccccn1`, the inhibition at 5 µM worked out at 19%.

As for `O=C(Nc1cccc(-c2nc3ccccc3[nH]2)c1)c1ccccc1`, the inhibition at 5 µM worked out at 17%.

As for `CCCCC(=O)Nc1cccc(-c2nc3ccccc3[nH]2)c1`, the inhibition at 5 µM amounted to 15%.

In the case of `O=C(Nc1cccc(-c2nc3ccccc3[nH]2)c1)C1CCCC1`, the inhibition at 5 µM amounted to 22%.

On to `O=C(Nc1ccccc1)Nc1cccc(-c2nc3ccccc3[nH]2)c1`, for which the inhibition at 5 µM came out at 13%.

Take `O=C(Nc1cccc(-c2nc3ccccc3[nH]2)c1)NC1CCCCC1`: the inhibition at 5 µM turned out to be 24%.

On to `O=C(Nc1ccccc1)Nc1ccccc1-c1nc2ccccc2[nH]1`, for which the inhibition at 5 µM worked out at 12%.

Consider `O=C(Nc1ccccc1)c1cccc(-c2nc3ccccc3[nH]2)c1`, for which the inhibition at 5 µM came out at 8%.

Turning to `O=C(Nc1ccccc1-c1nc2ccccc2[nH]1)c1cccs1`, the inhibition at 5 µM was determined as 26%.

In the next experiment the test system is Leishmania donovani. In words: Antileishmanial activity against axenic amastigote Leishmania donovani MHOM/SD/1962/1S-Cl2d assessed as inhibition of parasite growth after 24 hrs at 15 uM by alamarBlue assay. The format is functional.
Consider `CC(=O)Nc1cccc(-c2nc3ccccc3[nH]2)c1`, for which the inhibition at 15 µM turned out to be 21%.

For the compound `CC(C)(C)C(=O)Nc1cccc(-c2nc3ccccc3[nH]2)c1`, the inhibition at 15 µM was 44%.

Turning to `O=C(Nc1cccc(-c2nc3cc(Cl)ccc3[nH]2)c1)c1cccs1`, the inhibition at 15 µM was 57%.

As to `O=S(=O)(Nc1cccc(-c2nc3ccccc3[nH]2)c1)c1ccccc1`, the inhibition at 15 µM was found to be 30%.

As for `O=C(Nc1cccc(-c2nc3ccccc3[nH]2)c1)c1ccsc1`, the inhibition at 15 µM worked out at 67%.

In the case of `O=C(Nc1cccc(-c2nc3ccccc3[nH]2)c1)c1ccoc1`, the inhibition at 15 µM stood at 39%.

In the case of `O=C(Nc1cccc(-c2nc3ccccc3[nH]2)c1)c1ccccn1`, the inhibition at 15 µM was 35%.

For `O=C(Nc1cccc(-c2nc3ccccc3[nH]2)c1)c1ccccc1`, the inhibition at 15 µM was found to be 43%.

In the case of `CCCCC(=O)Nc1cccc(-c2nc3ccccc3[nH]2)c1`, the inhibition at 15 µM was determined as 67%.

Take `O=C(Nc1cccc(-c2nc3ccccc3[nH]2)c1)C1CCCC1`: the inhibition at 15 µM came out at 76%.

Regarding `O=C(Nc1ccccc1)Nc1cccc(-c2nc3ccccc3[nH]2)c1`, the inhibition at 15 µM was 73%.

For the compound `O=C(Nc1cccc(-c2nc3ccccc3[nH]2)c1)NC1CCCCC1`, the inhibition at 15 µM amounted to 90%.

Regarding `O=C(Nc1ccccc1)Nc1ccccc1-c1nc2ccccc2[nH]1`, the inhibition at 15 µM worked out at 16%.

On to `O=C(Nc1ccccc1)c1cccc(-c2nc3ccccc3[nH]2)c1`, for which the inhibition at 15 µM came to 57%.

For `O=C(Nc1ccccc1-c1nc2ccccc2[nH]1)c1cccs1`, the inhibition at 15 µM worked out at 26%.
